In paper PMC6901910, “Molecular Basis of C-30 Product Regioselectivity of Legume Oxidases Involved in High-Value Triterpenoid Biosynthesis” (Frontiers in Plant Science, 2019):

Legend:
Assay in all cases: in vivo yeast assay, GC-MS of products
CYP72A560 = biological target: T1, CYP72A560 (Medicago truncatula, UniProt A0A5P8TXP5); type: cell-based; details: beta-amyrin formed in the cell by co-expressed OSC1; L. japonicus CPR; 30°C, 4 days
T1 construct: full length, expressed in S. cerevisiae INVSc1 with Lotus japonicus CPR and beta-amyrin synthase OSC1

CYP72A63 [1] = biological target: T2, CYP72A63 (Medicago truncatula, UniProt H1A981, L149V/L398V); type: cell-based; details: beta-amyrin formed in the cell by co-expressed OSC1; L. japonicus CPR; 30°C, 4 days
T2 construct: full length, expressed in S. cerevisiae INVSc1 with Lotus japonicus CPR and beta-amyrin synthase OSC1

CYP72A61v2 = biological target: T3, CYP72A61v2 (Medicago truncatula, UniProt H1A980); type: cell-based; details: beta-amyrin formed in the cell by co-expressed OSC1; L. japonicus CPR; 30°C, 4 days
T3 construct: full length, expressed in S. cerevisiae INVSc1 with Lotus japonicus CPR and beta-amyrin synthase OSC1

VaCYP72A694 = biological target: T4, VaCYP72A694 (Vigna angularis, UniProt A0A5P8TXJ3); type: cell-based; details: beta-amyrin formed in the cell by co-expressed OSC1; L. japonicus CPR; 30°C, 4 days
T4 construct: gene CYP72A694; full length, expressed in S. cerevisiae INVSc1 with Lotus japonicus CPR and beta-amyrin synthase OSC1

GuCYP72A154 = biological target: T5, GuCYP72A154 (Glycyrrhiza uralensis, UniProt H1A988); type: cell-based; details: beta-amyrin formed in the cell by co-expressed OSC1; L. japonicus CPR; 30°C, 4 days
T5 construct: gene CYP72A154; full length, expressed in S. cerevisiae INVSc1 with Lotus japonicus CPR and beta-amyrin synthase OSC1

CYP72A66v2 = biological target: T6, CYP72A66v2 (Medicago truncatula, UniProt A0A5P8TY60); type: cell-based; details: beta-amyrin formed in the cell by co-expressed OSC1; L. japonicus CPR; 30°C, 4 days
T6 construct: full length, expressed in S. cerevisiae INVSc1 with Lotus japonicus CPR and beta-amyrin synthase OSC1

GpCYP72A154 = biological target: T7, GpCYP72A154 (Glycyrrhiza pallidiflora, UniProt A0A5P8TXI9); type: cell-based; details: beta-amyrin formed in the cell by co-expressed OSC1; L. japonicus CPR; 30°C, 4 days
T7 construct: gene CYP72A154; full length, expressed in S. cerevisiae INVSc1 with Lotus japonicus CPR and beta-amyrin synthase OSC1
T7 sequence (A0A5P8TXI9 1-523): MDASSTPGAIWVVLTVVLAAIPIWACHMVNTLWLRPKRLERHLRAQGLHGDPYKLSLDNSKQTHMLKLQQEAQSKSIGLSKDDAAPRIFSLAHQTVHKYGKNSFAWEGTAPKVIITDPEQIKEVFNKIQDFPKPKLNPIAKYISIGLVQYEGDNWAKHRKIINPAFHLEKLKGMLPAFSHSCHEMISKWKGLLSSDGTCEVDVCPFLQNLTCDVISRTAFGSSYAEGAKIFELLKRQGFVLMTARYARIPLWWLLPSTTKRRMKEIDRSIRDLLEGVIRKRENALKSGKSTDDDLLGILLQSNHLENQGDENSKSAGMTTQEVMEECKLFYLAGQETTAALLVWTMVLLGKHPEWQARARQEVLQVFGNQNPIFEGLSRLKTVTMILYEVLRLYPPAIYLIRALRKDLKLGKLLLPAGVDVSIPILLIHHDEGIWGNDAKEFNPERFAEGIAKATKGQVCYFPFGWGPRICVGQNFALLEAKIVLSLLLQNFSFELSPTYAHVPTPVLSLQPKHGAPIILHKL

CYP72A559 = biological target: T8, CYP72A559 (Medicago truncatula, UniProt A0A5P8TXY6); type: cell-based; details: beta-amyrin formed in the cell by co-expressed OSC1; L. japonicus CPR; 30°C, 4 days
T8 construct: full length, expressed in S. cerevisiae INVSc1 with Lotus japonicus CPR and beta-amyrin synthase OSC1
T8 sequence (A0A5P8TXY6 1-518): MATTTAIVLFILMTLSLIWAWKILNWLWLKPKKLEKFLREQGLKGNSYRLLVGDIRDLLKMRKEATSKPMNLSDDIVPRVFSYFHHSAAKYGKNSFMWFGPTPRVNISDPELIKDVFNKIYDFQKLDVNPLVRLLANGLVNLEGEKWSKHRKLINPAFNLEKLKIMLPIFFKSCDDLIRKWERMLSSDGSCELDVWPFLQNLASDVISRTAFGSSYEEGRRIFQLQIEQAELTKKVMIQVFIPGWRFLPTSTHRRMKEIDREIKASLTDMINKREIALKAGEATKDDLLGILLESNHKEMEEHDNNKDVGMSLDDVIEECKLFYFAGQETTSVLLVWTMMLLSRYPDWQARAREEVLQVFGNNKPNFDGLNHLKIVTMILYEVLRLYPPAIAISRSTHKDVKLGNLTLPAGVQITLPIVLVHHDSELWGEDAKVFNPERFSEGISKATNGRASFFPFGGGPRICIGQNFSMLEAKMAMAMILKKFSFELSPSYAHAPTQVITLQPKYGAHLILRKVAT

CYP72A63 [2] = biological target: T9, CYP72A63 (Medicago truncatula, UniProt H1A981); type: cell-based; details: beta-amyrin formed in the cell by co-expressed OSC1; L. japonicus CPR; 30°C, 4 days
T9 construct: full length, expressed in S. cerevisiae INVSc1 with Lotus japonicus CPR and beta-amyrin synthase OSC1
T9 sequence (H1A981 1-524): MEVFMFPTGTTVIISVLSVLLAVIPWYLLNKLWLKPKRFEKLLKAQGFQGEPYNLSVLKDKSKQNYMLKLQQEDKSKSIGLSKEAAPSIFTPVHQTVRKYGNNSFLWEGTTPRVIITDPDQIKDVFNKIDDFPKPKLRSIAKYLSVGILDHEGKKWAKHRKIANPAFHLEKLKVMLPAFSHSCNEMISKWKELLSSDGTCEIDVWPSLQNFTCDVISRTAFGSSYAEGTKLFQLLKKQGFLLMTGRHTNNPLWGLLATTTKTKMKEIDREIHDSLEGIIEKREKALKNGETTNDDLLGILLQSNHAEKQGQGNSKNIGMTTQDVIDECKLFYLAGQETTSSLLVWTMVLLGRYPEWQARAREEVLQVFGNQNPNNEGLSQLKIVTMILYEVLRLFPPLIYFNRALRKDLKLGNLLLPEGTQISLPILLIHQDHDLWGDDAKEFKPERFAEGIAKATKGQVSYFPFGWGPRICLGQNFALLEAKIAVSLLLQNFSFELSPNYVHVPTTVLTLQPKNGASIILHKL

GgCYP72A154 = biological target: T10, GgCYP72A154 (Glycyrrhiza glabra, UniProt A0A5P8TXJ1); type: cell-based; details: beta-amyrin formed in the cell by co-expressed OSC1; L. japonicus CPR; 30°C, 4 days
T10 construct: gene CYP72A154; full length, expressed in S. cerevisiae INVSc1 with Lotus japonicus CPR and beta-amyrin synthase OSC1
T10 sequence (A0A5P8TXJ1 1-523): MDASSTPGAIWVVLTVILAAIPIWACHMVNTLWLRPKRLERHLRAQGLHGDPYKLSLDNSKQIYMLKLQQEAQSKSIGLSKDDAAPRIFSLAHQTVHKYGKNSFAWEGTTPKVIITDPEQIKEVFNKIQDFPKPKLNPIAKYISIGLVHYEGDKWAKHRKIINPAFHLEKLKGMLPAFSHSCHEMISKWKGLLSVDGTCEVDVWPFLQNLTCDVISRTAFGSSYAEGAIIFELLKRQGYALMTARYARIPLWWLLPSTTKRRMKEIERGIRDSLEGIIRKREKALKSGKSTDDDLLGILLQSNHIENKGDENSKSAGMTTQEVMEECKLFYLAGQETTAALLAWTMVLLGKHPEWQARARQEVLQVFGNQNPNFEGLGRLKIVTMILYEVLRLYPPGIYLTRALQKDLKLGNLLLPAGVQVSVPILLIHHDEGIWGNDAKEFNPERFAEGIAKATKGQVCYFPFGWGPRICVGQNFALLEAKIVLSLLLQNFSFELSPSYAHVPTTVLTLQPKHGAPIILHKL

Gmax CYP72A141 = biological target: T11, Gmax CYP72A141 (Glycine max, UniProt A0A5P8TY68); type: cell-based; details: beta-amyrin formed in the cell by co-expressed OSC1; L. japonicus CPR; 30°C, 4 days
T11 construct: full length, expressed in S. cerevisiae INVSc1 with Lotus japonicus CPR and beta-amyrin synthase OSC1

CYP72A62v2 = biological target: T12, CYP72A62v2 (Medicago truncatula, UniProt H1A982, V149L/V398L); details: beta-amyrin formed in the cell by co-expressed OSC1; L. japonicus CPR; 30°C, 4 days; CYP72A63-based numbering
T12 construct: full length, expressed in S. cerevisiae INVSc1 with Lotus japonicus CPR and beta-amyrin synthase OSC1

TpCYP72A699 = biological target: T13, TpCYP72A699 (Trifolium pratense, UniProt A0A5P8TXT7); type: cell-based; details: beta-amyrin formed in the cell by co-expressed OSC1; L. japonicus CPR; 30°C, 4 days
T13 construct: gene CYP72A699; full length, expressed in S. cerevisiae INVSc1 with Lotus japonicus CPR and beta-amyrin synthase OSC1

PvCYP72A302 = biological target: T14, PvCYP72A302 (Phaseolus vulgaris, UniProt A0A5P8TXN3); type: cell-based; details: beta-amyrin formed in the cell by co-expressed OSC1; L. japonicus CPR; 30°C, 4 days
T14 construct: gene CYP72A302; full length, expressed in S. cerevisiae INVSc1 with Lotus japonicus CPR and beta-amyrin synthase OSC1

LjCYP72A697 = biological target: T15, LjCYP72A697 (Lotus japonicus, UniProt A0A5P8TXS9); type: cell-based; details: beta-amyrin formed in the cell by co-expressed OSC1; L. japonicus CPR; 30°C, 4 days
T15 construct: gene CYP72A697; full length, expressed in S. cerevisiae INVSc1 with Lotus japonicus CPR and beta-amyrin synthase OSC1
T15 sequence (A0A5P8TXS9 entry or part of it): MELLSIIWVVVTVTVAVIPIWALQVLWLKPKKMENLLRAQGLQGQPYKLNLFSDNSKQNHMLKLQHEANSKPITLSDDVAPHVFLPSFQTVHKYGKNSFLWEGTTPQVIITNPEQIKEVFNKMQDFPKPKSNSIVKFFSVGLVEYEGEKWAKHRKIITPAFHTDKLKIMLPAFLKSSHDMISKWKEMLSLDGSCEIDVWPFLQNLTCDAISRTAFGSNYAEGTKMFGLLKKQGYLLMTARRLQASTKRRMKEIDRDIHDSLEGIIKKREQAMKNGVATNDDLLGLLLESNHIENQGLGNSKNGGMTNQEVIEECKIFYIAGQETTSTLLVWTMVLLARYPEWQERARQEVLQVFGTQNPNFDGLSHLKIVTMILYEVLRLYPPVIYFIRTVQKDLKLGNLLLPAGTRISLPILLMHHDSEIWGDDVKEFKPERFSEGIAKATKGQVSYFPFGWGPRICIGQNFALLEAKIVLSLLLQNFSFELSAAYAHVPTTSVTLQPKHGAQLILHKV

T12 sequence (H1A982 entry or part of it V149L/V398L): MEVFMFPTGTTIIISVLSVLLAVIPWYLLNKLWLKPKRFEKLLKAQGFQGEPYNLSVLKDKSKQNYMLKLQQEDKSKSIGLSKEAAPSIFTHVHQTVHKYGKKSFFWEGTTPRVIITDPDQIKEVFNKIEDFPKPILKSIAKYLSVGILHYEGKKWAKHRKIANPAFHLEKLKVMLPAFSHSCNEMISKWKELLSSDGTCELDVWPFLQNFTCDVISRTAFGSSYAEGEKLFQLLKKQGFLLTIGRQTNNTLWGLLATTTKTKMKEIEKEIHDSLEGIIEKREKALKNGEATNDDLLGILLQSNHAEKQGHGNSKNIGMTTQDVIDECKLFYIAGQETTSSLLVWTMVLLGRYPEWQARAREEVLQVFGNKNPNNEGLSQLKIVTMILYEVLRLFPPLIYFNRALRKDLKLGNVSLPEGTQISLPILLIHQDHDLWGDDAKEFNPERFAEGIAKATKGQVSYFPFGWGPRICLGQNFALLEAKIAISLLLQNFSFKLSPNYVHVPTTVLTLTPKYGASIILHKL
T2 sequence (H1A981 whole entry L149V/L398V, the tested form may be a part): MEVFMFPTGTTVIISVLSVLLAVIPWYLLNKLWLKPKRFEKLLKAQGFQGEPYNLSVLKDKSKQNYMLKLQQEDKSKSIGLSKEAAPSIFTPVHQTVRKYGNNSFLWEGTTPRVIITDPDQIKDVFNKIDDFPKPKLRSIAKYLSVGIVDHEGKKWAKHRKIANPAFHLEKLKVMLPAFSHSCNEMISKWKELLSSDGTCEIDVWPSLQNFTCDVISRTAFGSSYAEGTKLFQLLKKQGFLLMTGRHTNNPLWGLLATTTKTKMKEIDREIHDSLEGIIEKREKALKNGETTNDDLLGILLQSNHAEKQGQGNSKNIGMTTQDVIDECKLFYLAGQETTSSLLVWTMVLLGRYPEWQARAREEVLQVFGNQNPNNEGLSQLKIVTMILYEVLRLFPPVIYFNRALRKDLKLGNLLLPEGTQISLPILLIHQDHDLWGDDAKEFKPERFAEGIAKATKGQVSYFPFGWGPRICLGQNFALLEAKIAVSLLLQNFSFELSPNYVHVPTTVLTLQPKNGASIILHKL
T1 sequence (A0A5P8TXP5 1-518): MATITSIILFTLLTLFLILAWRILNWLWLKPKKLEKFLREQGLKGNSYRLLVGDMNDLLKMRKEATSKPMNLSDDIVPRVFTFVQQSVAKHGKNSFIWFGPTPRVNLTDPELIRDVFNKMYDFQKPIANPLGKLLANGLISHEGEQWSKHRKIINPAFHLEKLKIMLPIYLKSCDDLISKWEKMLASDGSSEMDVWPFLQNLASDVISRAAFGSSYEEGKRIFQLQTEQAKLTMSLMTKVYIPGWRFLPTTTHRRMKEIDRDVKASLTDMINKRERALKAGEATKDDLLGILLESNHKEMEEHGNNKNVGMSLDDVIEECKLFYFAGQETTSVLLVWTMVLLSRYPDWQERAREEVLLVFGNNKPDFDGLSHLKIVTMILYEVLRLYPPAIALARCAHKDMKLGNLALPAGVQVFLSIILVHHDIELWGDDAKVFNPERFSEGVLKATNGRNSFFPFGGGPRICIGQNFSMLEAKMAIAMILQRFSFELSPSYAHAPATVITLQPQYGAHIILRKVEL
T11 sequence (A0A5P8TY68 1-520): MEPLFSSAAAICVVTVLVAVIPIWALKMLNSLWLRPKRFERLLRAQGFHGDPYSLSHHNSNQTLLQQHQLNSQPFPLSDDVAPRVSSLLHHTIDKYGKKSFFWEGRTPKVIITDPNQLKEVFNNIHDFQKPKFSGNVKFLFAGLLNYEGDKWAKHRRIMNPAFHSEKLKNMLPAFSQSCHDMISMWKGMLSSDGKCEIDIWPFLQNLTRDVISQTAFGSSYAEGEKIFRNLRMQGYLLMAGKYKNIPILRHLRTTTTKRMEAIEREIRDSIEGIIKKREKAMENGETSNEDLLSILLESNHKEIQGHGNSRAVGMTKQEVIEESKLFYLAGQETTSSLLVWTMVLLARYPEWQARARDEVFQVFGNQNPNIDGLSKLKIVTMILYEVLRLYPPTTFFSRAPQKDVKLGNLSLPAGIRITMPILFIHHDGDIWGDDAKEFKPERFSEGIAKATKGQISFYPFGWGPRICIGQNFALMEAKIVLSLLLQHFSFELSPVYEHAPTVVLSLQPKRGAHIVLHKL
T4 sequence (A0A5P8TXJ3 entry or part of it): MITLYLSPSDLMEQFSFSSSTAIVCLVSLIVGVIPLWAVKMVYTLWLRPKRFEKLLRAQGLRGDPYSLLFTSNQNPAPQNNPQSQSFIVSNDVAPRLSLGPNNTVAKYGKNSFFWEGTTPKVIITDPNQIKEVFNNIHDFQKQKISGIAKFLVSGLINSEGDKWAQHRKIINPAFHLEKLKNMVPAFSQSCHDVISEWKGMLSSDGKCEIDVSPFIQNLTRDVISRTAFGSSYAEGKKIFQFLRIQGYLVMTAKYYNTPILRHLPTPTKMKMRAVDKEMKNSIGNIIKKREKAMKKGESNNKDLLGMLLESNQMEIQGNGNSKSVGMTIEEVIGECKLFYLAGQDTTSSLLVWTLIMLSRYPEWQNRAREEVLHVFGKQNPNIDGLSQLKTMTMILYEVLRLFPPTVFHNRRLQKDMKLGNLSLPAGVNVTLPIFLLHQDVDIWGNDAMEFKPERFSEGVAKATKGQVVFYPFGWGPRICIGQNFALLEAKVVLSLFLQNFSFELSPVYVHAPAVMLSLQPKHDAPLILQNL
T3 sequence (H1A980 entry or part of it): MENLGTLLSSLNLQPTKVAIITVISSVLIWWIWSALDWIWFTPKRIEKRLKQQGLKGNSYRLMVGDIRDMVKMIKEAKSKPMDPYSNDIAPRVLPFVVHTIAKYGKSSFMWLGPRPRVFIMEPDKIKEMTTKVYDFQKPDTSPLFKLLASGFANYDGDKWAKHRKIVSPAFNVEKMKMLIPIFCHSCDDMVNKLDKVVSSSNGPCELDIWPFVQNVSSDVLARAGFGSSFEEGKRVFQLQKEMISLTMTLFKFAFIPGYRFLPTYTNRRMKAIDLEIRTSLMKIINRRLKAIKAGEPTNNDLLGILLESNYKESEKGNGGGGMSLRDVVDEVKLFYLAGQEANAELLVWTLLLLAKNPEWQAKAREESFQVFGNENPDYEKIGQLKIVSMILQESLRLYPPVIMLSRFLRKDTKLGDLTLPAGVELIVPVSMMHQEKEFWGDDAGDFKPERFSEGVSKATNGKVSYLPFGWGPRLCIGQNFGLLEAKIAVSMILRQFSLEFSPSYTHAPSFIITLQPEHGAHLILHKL
T5 sequence (H1A988 whole entry): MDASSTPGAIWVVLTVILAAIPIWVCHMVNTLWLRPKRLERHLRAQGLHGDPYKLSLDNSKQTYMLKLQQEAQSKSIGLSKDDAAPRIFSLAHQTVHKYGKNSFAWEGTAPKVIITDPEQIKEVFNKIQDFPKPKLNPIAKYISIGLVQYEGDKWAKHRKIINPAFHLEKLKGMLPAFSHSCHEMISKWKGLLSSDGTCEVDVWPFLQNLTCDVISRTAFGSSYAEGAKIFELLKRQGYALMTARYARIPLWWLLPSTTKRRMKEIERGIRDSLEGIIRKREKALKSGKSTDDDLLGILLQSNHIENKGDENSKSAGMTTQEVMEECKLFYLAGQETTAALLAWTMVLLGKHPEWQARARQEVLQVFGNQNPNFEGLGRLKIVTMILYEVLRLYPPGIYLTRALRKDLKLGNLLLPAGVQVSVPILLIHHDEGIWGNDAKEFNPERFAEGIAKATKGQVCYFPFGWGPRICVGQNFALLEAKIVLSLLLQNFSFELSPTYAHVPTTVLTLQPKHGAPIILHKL
T14 sequence (A0A5P8TXN3 entry or part of it): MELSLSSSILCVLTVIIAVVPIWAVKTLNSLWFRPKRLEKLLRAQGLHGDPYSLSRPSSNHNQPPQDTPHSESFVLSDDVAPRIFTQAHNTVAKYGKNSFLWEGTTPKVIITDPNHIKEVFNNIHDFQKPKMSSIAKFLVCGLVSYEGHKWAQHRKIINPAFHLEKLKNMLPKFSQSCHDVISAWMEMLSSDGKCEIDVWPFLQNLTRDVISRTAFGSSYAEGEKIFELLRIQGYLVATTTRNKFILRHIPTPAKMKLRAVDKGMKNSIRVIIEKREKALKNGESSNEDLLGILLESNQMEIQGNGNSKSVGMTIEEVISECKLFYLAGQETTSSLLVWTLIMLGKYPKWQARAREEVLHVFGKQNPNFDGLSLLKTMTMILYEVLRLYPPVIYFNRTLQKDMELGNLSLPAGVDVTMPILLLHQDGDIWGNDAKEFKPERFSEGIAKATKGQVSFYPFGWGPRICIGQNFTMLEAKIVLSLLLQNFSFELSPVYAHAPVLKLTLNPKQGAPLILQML

## CC1(C)CC[C@]2(C)CC[C@]3(C)C(=CC[C@@H]4[C@@]5(C)CC[C@H](O)C(C)(C)[C@@H]5CC[C@]43C)[C@@H]2C1 [β-amyrin]
CYP72A560
  in vivo yeast assay, GC-MS of products: CYP72A559 and CYP72A560 showed oxidation activity against β-amyrin at the D or E ring
CYP72A63 [1]
  in vivo yeast assay, GC-MS of products: CYP72A63^L149V/L398V and CYP72A63^L149V/L398I had altered product regioselectivity resembling their counterparts
CYP72A61v2
  in vivo yeast assay, GC-MS of products: showed oxidation activity against β-amyrin at position C-22β, producing sophoradiol
VaCYP72A694
  in vivo yeast assay, GC-MS of products: in vivo enzymatic assays showed that they have regioselectivity in the C-29 position
GuCYP72A154
  in vivo yeast assay, GC-MS of products: GuCYP72A154 and GgCYP72A154 oxidized β-amyrin with less regioselectivity at the D or E ring
CYP72A66v2
  in vivo yeast assay, GC-MS of products: β-Amyrin C-22β oxidation activity was also detected in CYP72A66v2 (subgroup III)
GpCYP72A154
  in vivo yeast assay, GC-MS of products: the non-glycyrrhizin-producing species GpCYP72A154 oxidized β-amyrin
CYP72A559
  in vivo yeast assay, GC-MS of products: CYP72A559 and CYP72A560 showed oxidation activity against β-amyrin at the D or E ring
CYP72A63 [2]
  in vivo yeast assay, GC-MS of products: CYP72A63 showed oxidation activity against β-amyrin at the C-30 position
GgCYP72A154
  in vivo yeast assay, GC-MS of products: GuCYP72A154 and GgCYP72A154 oxidized β-amyrin with less regioselectivity at the D or E ring
Gmax CYP72A141
  in vivo yeast assay, GC-MS of products: in vivo enzymatic assays showed that they have regioselectivity in the C-29 position
CYP72A62v2
  in vivo yeast assay, GC-MS of products: CYP72A62v2^V149L/V398L produced only C-30 oxidized products, 30-hydroxy-β-amyrin and 11-deoxoglycyrrhetinic acid
TpCYP72A699
  in vivo yeast assay, GC-MS of products: regioselectivity in the C-29 position was common among them
PvCYP72A302
  in vivo yeast assay, GC-MS of products: regioselectivity in the C-29 position was common among them
LjCYP72A697
  in vivo yeast assay, GC-MS of products: in vivo enzymatic assays showed that they have regioselectivity in the C-29 position
